Assay results published in ChEMBL document CHEMBL5252590, “Structure-based design of novel melanin-concentrating hormone receptor-1 ligands based on saturated nitrogen-containing heterocycles” (Bioorg Med Chem Lett, 2023).

Experiment: Displacement of [125I]MCH from MCHR1 expressed in CHO cell membranes assessed as inhibition constant
Design: species or system Cricetulus griseus, Membrane
Conditions: not given; call rule not given here

Compound | Ki
O=C(c1ccc(-c2ccccc2)cc1)N1CCCC12CCCN(Cc1ccc3ccccc3c1)C2 (configuration not stated) | Not Active

Same assay, conditions: read-out: Ki

Compound | Ki [µM]
O=C(COc1ccc(Cl)cc1)N[C@@H]1CCN(Cc2ccc3ccccc3c2)C1 | 0.271
O=C(c1ccc(F)c(F)c1)N1CCC2(CCCN(Cc3ccc4ccccc4c3)C2)C1 (configuration not stated) | 1.9
COc1cc(OC)cc(C(=O)NC[C@H]2CCN(Cc3ccc4ccccc4c3)C2)c1 | 0.105
O=C(N[C@@H]1CCN(Cc2ccc3ccccc3c2)C1)c1ccc(Br)cc1 | 0.103
O=C(c1ccc(F)c(Cl)c1)N1CCC2(CCCN(Cc3ccc4c(c3)OCO4)C2)C1 (configuration not stated) | 2.5
O=C(COc1ccc(Cl)cc1)N1CCC2(CCCN(Cc3ccc4c(c3)OCO4)C2)C1 (configuration not stated) | 2.56
Cc1ccc2c(C)c(C(=O)N[C@@H]3CCN(Cc4ccc5ccccc5c4)C3)oc2c1 | 2.64
O=C(N[C@@H]1CCN(Cc2ccc3ccccc3c2)C1)c1ccc(F)c(Cl)c1 | 0.136
COc1cc(NC(=O)CC2CCCN(Cc3ccc4ccccc4c3)C2)cc(OC)c1 (configuration not stated) | 1.69
O=C(N[C@@H]1CCN(Cc2ccc3ccccc3c2)C1)c1ccc(Br)s1 | 0.202
O=C(N[C@@H]1CCN(Cc2ccc3ccccc3c2)C1)c1ccc(-c2ccc(C(F)(F)F)cc2)s1 | 3.08
O=C(COc1ccc(Cl)cc1)N1CCCC12CCCN(Cc1ccc3ccccc3c1)C2 (configuration not stated) | 2.61
COc1cc(OC)cc(C(=O)N[C@@H]2CCN(Cc3ccc4c(c3)OCO4)C2)c1 | 0.0618
O=C(/C=C/c1ccc(F)cc1)N[C@@H]1CCN(Cc2ccc3ccccc3c2)C1 | 0.936
COc1cccc(-c2ccc(C(=O)N[C@@H]3CCN(Cc4ccc5ccccc5c4)C3)cc2)c1 | 4.19
O=C(N[C@@H]1CCN(Cc2ccc3ccccc3c2)C1)c1ccc(F)c(F)c1 | 0.208
O=C(N[C@@H]1CCN(Cc2ccc3ccccc3c2)C1)c1ccc(-c2ccc(F)cc2)cc1 | 1.84
COc1cc(OC)cc(C(=O)N2CCC3(CCCN(Cc4ccc5ccccc5c4)C3)C2)c1 (configuration not stated) | 0.33
O=C(N[C@@H]1CCN(Cc2ccc3ccccc3c2)C1)c1ccccc1 | 0.448
COc1cc(OC)cc(C(=O)N[C@@H]2CCN(C/C=C/c3ccccc3)C2)c1 | 0.017
COc1cc(OC)cc(C(=O)N[C@@H]2CCN(Cc3ccc4ccccc4c3)C2)c1 | 0.007
